In EP4644383A1 (Jiangsu Yahong Meditech Co., Ltd., priority 2022, dated 2024):

Experiments:
FGFR1 = biological target: T1, FGFR1 (Homo sapiens, UniProt P11362); assay: FGFR1 kinase activity inhibition assay (LanthaScreen TR-FRET); format: biochemical; details: FGFR1 kinase, TR-FRET; read-out: IC50 (nM) FGFR1
T1 construct: cytoplasmic domain [398-822 (terminal) amino acids]; purchased Carna 08-133
How it was run: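 Emission ratio 520 nm/495 nm by TR-FRET after stopping reaction with 10 mM EDTA and 60 min incubation at 22°C. Inhibition normalized between no-enzyme (min) and DMSO (max) controls, then fitted to a four-parameter curve (Top, Bottom, HillSlope).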

FGFR3 = biological target: T2, FGFR3 (Homo sapiens, UniProt P22607); assay: FGFR3 kinase activity inhibition assay (LanthaScreen TR-FRET); format: biochemical; details: for IC50: FGFR3 kinase, TR-FRET, read-out: IC50 (nM) FGFR3; for Selectivity (X) FGFR1/FGFR3: ratio of IC50 FGFR1/FGFR3, selectivity towards FGFR3
T2 construct: FGFR3's cytoplasmic domain [436-806 (terminal) amino acids]; purchased Carna 08-135
T2 sequence (P22607 436-806): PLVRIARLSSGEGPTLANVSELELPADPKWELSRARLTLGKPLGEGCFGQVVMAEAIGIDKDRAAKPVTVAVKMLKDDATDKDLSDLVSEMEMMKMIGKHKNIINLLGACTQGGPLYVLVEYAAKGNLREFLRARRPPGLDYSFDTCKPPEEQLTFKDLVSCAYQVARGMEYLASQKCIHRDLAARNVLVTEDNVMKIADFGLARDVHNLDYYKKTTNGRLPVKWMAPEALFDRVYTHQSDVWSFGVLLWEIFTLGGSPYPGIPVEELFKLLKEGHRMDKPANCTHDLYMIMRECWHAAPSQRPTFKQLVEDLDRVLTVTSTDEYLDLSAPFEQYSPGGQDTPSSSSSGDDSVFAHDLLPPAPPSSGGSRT
How it was run: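 Read-out is TR-FRET, with the 520 nm/495 nm emission ratio normalised to DMSO (max) and enzyme-free (min) controls. Enzyme was the FGFR3 cytoplasmic domain, residues 436-806. EDTA (10 mM) stopped the reaction, followed by 60 min at 22 °C before reading.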

Ba/F3-BCR-FGFR1 cells = assay: Inhibition of proliferation activity of Ba/F3-BCR-FGFR1 cells (CellTiter-Glo); format: cell-based; details: Ba/F3-BCR-FGFR1 cells, 72 hours, CTG; read-out: IC50 (nM) Ba/F3-BCR-FGFR1
Description: (§1) The present experiment used CellTiter-Glo® Luminescent Cell Viability Assay (Promega: G7573) kit, which was a homogeneous cell viability detection method and determined the cell viability of cultured cells by quantifying ATP. • ① Ba/F3-BCR-FGFR1 or Ba/F3-FGFR3-BAIAP2L1 cells were cultured in 1640 complete medium (Gibco: 11879020) (10% FBS (Gibco: 10091-148)+1% Pen Strep (Gibco: 15140122)) under the condition of 37°C and 5% CO2. • (2) The cells in logarithmic growth phase were harvested and counted using a […]. The trypan blue exclusion method was used to detect cell viability to ensure the cell viability was above 90%. • ③ The cell density was adjusted using 1640 complete medium, and then, the cells were seeded into a 96-well cell culture plate at 90 µL/well with a total of 2000 cells. • ④ A 10-fold drug solution was prepared starting from a maximum drug concentration of 10 µM and 4-fold serially diluted into10 concentrations. Then, 10 µL of each of the serially diluted compounds was transferred to the corresponding experimental wells of a 96-well cell plate, with two replicates for each drug concentration. • ⑤ The 96-well plate with the cells that had been treated with the drugs was placed under the condition of 37°C and 5% CO2 to be further cultured for 72 hours, and then analyzed by CTG. • ⑥ The CTG reagent was melted and the cell plate was equilibrated to room temperature for 30 minutes. • ⑦ 50 µL of the CTG solution was added to each well. • ⑧ The cell plate was shaken on an orbital shaker for 5 minutes to lyse the cells. • ⑨ The cell plate was placed at room temperature for 20 minutes to stabilize the luminescence signal. The luminescence values were read to collect the data. • ⑩ The data were analyzed using XLFit excel plugin version 5.5.0.5, and fitted with non-linear S-curve regression to obtain the dose-response curves and thus calculate the IC50 values. Y = Bottom + (Top-Bottom)/((1+(IC50/X))^(∧) HillSlope [formula]
(§2) "Top" refers to the maximum response, "Bottom" refers to the minimum response, and "HillSlope" refers to the slope of the curve.
(§3) "Max" represents the average value of the cell control+DMSO, and "Min" represents the average value of the medium control+DMSO.

[1] = test system: Ba/F3-FGFR3-BAIAP2L1 cells; assay: Inhibition of proliferation activity of Ba/F3-FGFR3-BAIAP2L1 cells (CellTiter-Glo); format: cell-based; details: for IC50: Ba/F3-FGFR3-BAIAP2L1 cells, 72 hours, CTG, read-out: IC50 (nM) Ba/F3-FGFR3-BAIAP2L1; for Selectivity (X) FGFR1/FGFR3: ratio of IC50 Ba/F3-BCR-FGFR1 to IC50 Ba/F3-FGFR3-BAIAP2L1
Description: as §1, with “Then, 10 µL of each of the serially diluted compounds was transferred to the corresponding experimental wells of a 96-well cell plate, with two replicates for each drug concentration. • ⑤ The 96-well plate with the cells that had been treated with the drugs was placed under the condition of 37°C and 5% CO2 to be further cultured for 72 hours, and then analyzed by CTG. • ⑥ The CTG reagent was melted and the cell plate was equilibrated to room temperature for 30 minutes. • ⑦ 50 µL of the CTG solution was added to each well. • ⑧ The cell plate was shaken on an orbital shaker for 5 minutes to lyse the cells. • ⑨ The cell plate was placed at room temperature for 20 minutes to stabilize the luminescence signal.” left out
as §2, §3

T1 sequence (P11362 398-822): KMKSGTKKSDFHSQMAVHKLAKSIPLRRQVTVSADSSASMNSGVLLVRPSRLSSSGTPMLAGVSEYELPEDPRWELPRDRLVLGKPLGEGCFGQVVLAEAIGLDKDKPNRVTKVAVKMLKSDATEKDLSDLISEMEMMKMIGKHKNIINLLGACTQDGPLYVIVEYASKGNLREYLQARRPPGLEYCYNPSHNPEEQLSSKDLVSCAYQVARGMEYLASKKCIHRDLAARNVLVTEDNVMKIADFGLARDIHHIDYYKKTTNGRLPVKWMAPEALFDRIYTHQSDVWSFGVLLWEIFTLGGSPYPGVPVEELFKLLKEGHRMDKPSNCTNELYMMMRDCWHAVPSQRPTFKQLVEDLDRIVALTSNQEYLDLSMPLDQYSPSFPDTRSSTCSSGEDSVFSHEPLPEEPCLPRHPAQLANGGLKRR

Compound | IC50 (FGFR1) [nM] | IC50 (FGFR3) [nM] | Selectivity (X) FGFR1/FGFR3 (FGFR3) | IC50 (Ba/F3-BCR-FGFR1 cells) [nM] | IC50 [1] [nM] | Selectivity (X) FGFR1/FGFR3 [1] [X]
5-(1-((7-fluoro-3-(1-methyl-1H-pyrazol-4-yl)-1H-indazol-5-yl)oxy)ethyl)-6-methylquinoline [Example 100] | 10 to 100 | 1 to 10 | A (A represents 1 ≤ multiple X<20) | 1150 | 26.8 | 
CC(Oc1ccc2[nH]nc(-c3cnn(C)c3)c2c1)c1cccc2ncnn12 (centres unmarked) [Example 96, 5-(1-((3-(1-methyl-1H-pyrazol-4-yl)-1H-indazol-5-yl)oxy)ethyl)-[1,2,4]triazolo[1,5-a]pyridine] | 10 to 100 | 1 to 10 | A (A represents 1 ≤ multiple X<20) | 430 | 11.8 | 37
CC(Oc1ccc2[nH]nc(-c3cnn(C)c3)c2c1)c1cccc2ncc(F)cc12 (centres unmarked) [Example 98, 3-fluoro-5-(1-((3-(1-methyl-1H-pyrazol-4-yl)-1H-indazol-5-yl)oxy)ethyl)qu inoline] | > 100 | 10 to 100 | A (A represents 1 ≤ multiple X<20) | 2140 | 47.6 | 45
CC(Oc1ccc2[nH]nc(-c3cnn(C)c3)c2c1)c1cccc2ncncc12 (centres unmarked) [Example 99, 5-(1-((3-(1-methyl-1H-pyrazol-4-yl)-1H-indazol-5-yl)oxy)ethyl)qu inazoline] | > 100 | 10 to 100 | A (A represents 1 ≤ multiple X<20) | 1760 | 41.8 | 42
